The test system of series [1] is rat. The following applies: Subchronic oral toxicity in rodents, sprague dawley, Gavage/Intubation, dose end: 13 week, group: systemic.
Another series deals with rabbit. The following applies: Prenatal developmental toxicity study, dutch, Oral, Gavage/Intubation, dose end: 18 GD.
Series [2] relates to rat. The following applies: Combined chronic toxicity/carcinogenicity, wistar, Oral, Feed, dose end: 2 year, group: systemic.
Series [3] relates to mouse. The following applies: Carcinogenicity, cd1, Oral, Feed, dose end: 100 week, group: systemic.
Series [4] concerns rat. The following applies: Multigenerational reproductive toxicity study, wistar, Oral, Feed, dose end: 3 generation.
The test system of series [5] is mouse. The following applies: Carcinogenicity; cd1; Oral; Feed; dose end: 24 month; group: systemic; systemic / in life observation / clinical signs / anogenital staining + systemic / in life observation / clinical signs / distended abdomens….
Series [6] deals with dog. The following applies: Chronic toxicity; beagle; Oral; Capsule; dose end: 52 week; group: systemic; systemic / clinical chemistry / alkaline phosphatase (alp/alk) / alkaline phosphatase (alp/alk) + systemic / organ weight / liver / nos + ….
Series [7] relates to mouse. The following applies: Carcinogenicity, other, Oral, Feed, dose end: 98 week, group: systemic.
For series [8], the system named is rat. The settings on record: Prenatal developmental toxicity study, wistar, Oral, Gavage/Intubation, dose end: 16 GD.
In series [9] the test system is dog. The following applies: Subchronic oral toxicity in nonrodent, beagle, Capsule, dose end: 6 month, group: systemic, systemic / organ weight / liver / relative to body weight.
Series [10] relates to rat. The settings on record: Combined chronic toxicity/carcinogenicity, wistar, Oral, Feed, dose end: 104 week, group: systemic.
Series [11] concerns mouse. The settings on record: Carcinogenicity, cd1, Oral, Feed, dose end: 104 week, group: systemic.
Series [12] concerns dog. The settings on record: Chronic toxicity, beagle, Oral, Feed, dose end: 24 month, group: systemic.
In series [13] the test system is rat. The following applies: Combined chronic toxicity/carcinogenicity, sprague dawley, Oral, Feed, dose end: 24 month, group: systemic.
Setting [14] is: systemic / organ weight / heart / nos + systemic / organ weight / heart / relative to body weight.
Where [15] appears, read: systemic / organ weight / heart / nos + systemic / organ weight / heart / relative to body weight + systemic / hematology / erythrocyte (rbc….
Where [16] appears, read: group: developmental, developmental / developmental malformation / bone / incomplete ossification + systemic / in life observation / body weight / fetal weight.
[17] abbreviates: group: maternal, systemic / in life observation / body weight / body weight gain.
Setting [18] is: group: maternal, systemic / in life observation / body weight / body weight gain + systemic / in life observation / body weight / body weight.
[19] abbreviates: systemic / organ weight / kidney / nos + systemic / organ weight / liver / nos + systemic / clinical chemistry / aminopyrine-n-demethylase….
[20] abbreviates: systemic / organ weight / liver / absolute.
[21] abbreviates: systemic / pathology gross / liver / mass + systemic / pathology gross / lung / mass + systemic / pathology microscopic / liver / ….
Where [22] appears, read: group: offspring, systemic / pathology microscopic / liver / hypertrophy.
The mark [23] stands for this setting: group: parental, systemic / in life observation / clinical signs / tremors.
Where [24] appears, read: systemic / hematology / platelet / platelet + systemic / organ weight / liver / relative to body weight + systemic / hematology / leukocyte….
Setting [25] is: systemic / organ weight / kidney / absolute + systemic / organ weight / kidney / relative to body weight.
Where [26] appears, read: group: developmental, developmental / developmental malformation / bone / short supernumerary + systemic / in life observation / body weight / fetal weight.
Where [27] appears, read: group: maternal, systemic / in life observation / body weight / body weight gain + systemic / in life observation / clinical signs / headflicking + systemic….
Where [28] appears, read: systemic / in life observation / clinical signs / tremors + systemic / hematology / platelet / platelet + systemic / organ weight / kidney….
Setting [29] is: systemic / pathology microscopic / liver / adenoma + systemic / pathology microscopic / liver / adenoma/carcinoma combined + systemic / ….
Setting [30] is: systemic / organ weight / thyroid gland / relative to body weight.
The mark [31] stands for this setting: systemic / organ weight / thyroid gland / relative to body weight + systemic / organ weight / liver / relative to body weight.
[32] abbreviates: systemic / pathology microscopic / liver / eosinophilic focus.

Results on three molecules are retold here after EPA's ToxRefDB 2.

Broadly, the NOAEL is the highest tested level that showed no adverse finding. The term LOAEL denotes the lowest tested level that showed an adverse finding. Regarding `O=C([O-])CF.[Na+]` [Sodium fluoroacetate], in the series on rat [1] (setting [14]), the NEL turned out to be 0.05 mg/kg/day and the NOAEL is 0.05 mg/kg/day. For the same molecule, in the series on rat [1] (setting [15]), the LEL amounted to 0.2 mg/kg/day and the lowest-observed-adverse-effect level (LOAEL) amounted to 0.2 mg/kg/day.
On to `CC1(C)C(C=C(Cl)Cl)C1C(=O)OCc1cccc(Oc2ccccc2)c1` (stereo not drawn) [Permethrin], for which the LOAEL in the series with rabbit (group: developmental, developmental / developmental malformation / bone / incomplete ossification) was 1200 mg/kg/day; with rabbit (setting [17]), 600 mg/kg/day; in the series on rat [2] (systemic / in life observation / clinical signs / hypersensitivity + systemic / in life observation / clinical signs / tremors), 91.5 mg/kg/day; in the series on mouse [3] (setting [20]), 807 mg/kg/day; in the series on rat [4] (setting [22]), above 125 mg/kg/day; in the series on rat [4] (setting [23]), 125 mg/kg/day. The LOAEL is above 714 mg/kg/day in the series on mouse [5]; 100 mg/kg/day in the series on dog [6]; above 287 mg/kg/day in the series with mouse [7] (setting [24]); 150 mg/kg/day with rat [8] (setting [26]); 150 mg/kg/day in the series with rat [8] (setting [27]); above 250 mg/kg/day in the series with dog [9]. In addition, the lowest observed adverse effect level (LOAEL) with rat [10] (systemic / in life observation / clinical signs / tremors) turned out to be 250 mg/kg/day. For the same molecule, the LEL with rabbit (setting [16]) is 1200 mg/kg/day; in the series on rabbit (setting [18]), 600 mg/kg/day; in the series on rat [2] (setting [19]) it was 19.4 mg/kg/day; with mouse [3] (setting [21]), 780 mg/kg/day; in the series on rat [4] (setting [22]), 25 mg/kg/day; in the series with rat [4] (setting [23]), 125 mg/kg/day. In addition, the LEL with mouse [5] came to 3 mg/kg/day; with dog [6] it was 100 mg/kg/day; in the series on mouse [7] (setting [25]), 26.9 mg/kg/day; with rat [8] (setting [26]), 150 mg/kg/day; with rat [8] (setting [27]), 150 mg/kg/day; in the series on dog [9], 50 mg/kg/day. The LEL in the series with rat [10] (systemic / hematology / platelet / platelet + systemic / pathology microscopic / liver / hypertrophy + systemic / pathology microscopic / …) worked out at 50 mg/kg/day. The NEL is 600 mg/kg/day with rabbit (setting [16]); below 600 mg/kg/day with rabbit (setting [18]); below 19.4 mg/kg/day with rat [2] (setting [19]); below 780 mg/kg/day with mouse [3] (setting [21]); below 25 mg/kg/day with rat [4] (setting [22]); 50 mg/kg/day in the series on rat [4] (setting [23]). For the same molecule, the NEL with mouse [5] is below 3 mg/kg/day; with dog [6], 5 mg/kg/day; in the series on mouse [7] (setting [25]), below 26.9 mg/kg/day; in the series on rat [8] (setting [26]), 50 mg/kg/day; in the series with rat [8] (setting [27]) it was 50 mg/kg/day; in the series on dog [9], 10 mg/kg/day. Moreover, in the series with rat [10] (setting [28]), the NEL came to 10 mg/kg/day. In addition, the no-observed-adverse-effect level (NOAEL) in the series with rabbit (setting [16]) was 600 mg/kg/day; in the series with rabbit (setting [17]), below 600 mg/kg/day; in the series on rat [2] (systemic / in life observation / clinical signs / hypersensitivity + systemic / in life observation / clinical signs / tremors + systemic / …), 36.9 mg/kg/day; in the series on mouse [3] (setting [20]), below 807 mg/kg/day; in the series on rat [4] (setting [22]), at least 125 mg/kg/day; with rat [4] (setting [23]), 50 mg/kg/day. Besides, the no-observed-adverse-effect level (NOAEL) in the series with mouse [5] is at least 714 mg/kg/day; with dog [6], 5 mg/kg/day; in the series with mouse [7] (setting [24]), at least 287 mg/kg/day; with rat [8] (setting [26]), 50 mg/kg/day; in the series on rat [8] (setting [27]), 50 mg/kg/day; with dog [9], at least 250 mg/kg/day. Moreover, the NOAEL with rat [10] (setting [28]) turned out to be 50 mg/kg/day.
In the case of `Cc1[nH]c(=O)n(C(C)(C)C)c(=O)c1Cl` [Terbacil], the LEL in the series on mouse [11] (setting [29]) worked out at 7.2 mg/kg/day; with dog [12] (setting [30]), 6.25 mg/kg/day; in the series on rat [13] (setting [32]), 0.9 mg/kg/day. The NEL with mouse [11] (setting [29]) was below 7.2 mg/kg/day; in the series with dog [12] (setting [31]), 1.25 mg/kg/day; in the series with rat [13] (setting [32]) it was below 0.9 mg/kg/day. The results for the LOAEL with mouse [11] (systemic / pathology microscopic / liver / hyperplastic nodule (pre-neoplastic)), in the series on dog [12] (setting [30]) and with rat [13] (systemic / organ weight / liver / absolute + systemic / organ weight / liver / relative to body weight + systemic / in life observation / …) were 1070 mg/kg/day, 6.25 mg/kg/day and 83 mg/kg/day, respectively. Further, the NOAEL with mouse [11] (systemic / pathology microscopic / liver / hyperplastic nodule (pre-neoplastic) + systemic / pathology microscopic / liver / adenoma + …) is 179 mg/kg/day; with dog [12] (setting [31]), 1.25 mg/kg/day; with rat [13] (systemic / organ weight / liver / absolute + systemic / organ weight / liver / relative to body weight + systemic / pathology microscopic / …) it was 1.4 mg/kg/day.
